# According to US20210052621A1, “METHODS FOR TREATING FLAVIVIRUSES AND ZIKA INFECTIONS” (THE REGENTS OF THE UNIVERSITY OF CALIFORNIA, priority 2017, published 2021):
# “Also recorded” adds a separate entry of the source. Where a name gives a salt, the structure may show the parent alone.
# System: Zika virus in 293 T cells
# Test: Dose dependent inhibition of Zika virus in 293 T cells, IC50 calculated
# Format: cell-based
# Details: MOI of 5, different concentration of drugs
# Experimental: FIGS. 2A-2D. […] FIG. 2A—Lopinavir. FIG. 2B—Daclatasvir. FIG. 2C—Oxyclozanide. FIG. 2D—Rafoxanide.
# Conditions: Zika virus in 293 T cells at the MOI of 5 using different concentration of drugs. IC50 was calculated.
row,SMILES,Dose dependent inhibition of Zika virus
1,"Cc1cccc(C)c1OCC(=O)N[C@@H](Cc1ccccc1)[C@@H](O)C[C@H](Cc1ccccc1)NC(=O)[C@H](C(C)C)N1CCCNC1=O [Lopinavir, (2S)—N-[(2S,4S,5S)-5-[2-(2,6-dimethylphenoxy)acetamido]-4-hydroxy-1,6-diphenylhexan-2-yl]-3-methyl-2-(2-oxo-1,3-diazinan-1-yl)butanamide]",Dose dependent inhibition
2,O=C(Nc1cc(Cl)cc(Cl)c1O)c1c(O)c(Cl)cc(Cl)c1Cl [Oxyclozanide],Dose dependent inhibition
3,O=C(Nc1ccc(Oc2ccc(Cl)cc2)c(Cl)c1)c1cc(I)cc(I)c1O [Rafoxanide],Dose dependent inhibition

# System: ZIKA in Vero cells
# Test: Screening of additional compounds for ZIKA levels using Vero cells (viral RNA released, qRT-PCR)
# Format: cell-based, Zika virus
# Details: 10 μM, viral RNA released by qRT-PCR
# Experimental: FIG. 6. Screening of additional compounds for ZIKA levels using Vero cells (in 10 μM concentration). Methods of screening were as described herein. Viral RNA released was analyzed by qRT-PCR for ZIKA. Compounds (left to right): control, berberine, fluoxetine, formoterol, genistine, U0126, dibucaine, pirlindole, suramin, mycophenolic acid, polyhydroxyalkanoates, (PHA) and niclosamide.
# FIG. 7. Screening of additional compounds for ZIKA levels using Vero cells (in 10 μM concentration) as described for FIG. 6. Compounds (left to right): clomiphene, amphotericin B, and toremifene.
# FIG. 8. Screening of additional compounds for ZIKA levels using Vero cells (in 10 μM concentration) as described for FIG. 6.
# FIG. 6 depicts ZIKV levels as determined by qRT-PCR for ZIKA in Vero cells at 10 μM concentration (left to right) of control, berberine, fluoxentine, formoterol, genistine, U0126, dibucaine, pirlindole, suramin, mycophenolic acid, PHA, and niclosamide.
# FIG. 7 depicts dose response studies on ZIKV levels for clomiphene, amphotericin B, and toremifene.
# FIG. 8 depicts ZIKV levels after administration of various agents. […] Zidovudine. Acyclovir. Drostanolone Propionate, Dapivirine (TMC120), Tilorone hydrochloride, and Docosanol.
row,SMILES,ZIKV levels / ZIKV load (Hits)
1,"Cc1cc(C)c(Nc2ccnc(Nc3ccc(C#N)cc3)n2)c(C)c1 [Dapivirine (TMC120), 4-{[4-(mesitylamino)-2-pyrimidinyl]amino}benzonitrile]",reduce ZIKV load
2,CCCCCCCCCCCCCCCCCCCCCCO [Docosanol],reduce ZIKV load
3,"Nc1nc2c(ncn2COC(CO)CO)c(=O)[nH]1 [Ganciclovir, 9-(1,3-dihydroxy-2-propoxymethyl)guanine]",reduce ZIKV load
4,"CCN(CC)CCOC(=O)c1ccc(N)cc1 [Procaine hydrochloride, 4-amino-, 2-(diethylamino) ethyl ester monohydrochloride]",reduce ZIKV load
5,"CCN(CC)CCOc1ccc2c(c1)C(=O)c1cc(OCCN(CC)CC)ccc1-2.Cl [Tilorone hydrochloride, 2,7-Bis(2-diethylaminoethoxy)fluoren-9-one hydrochloride]",reduce ZIKV load
6,"Cc1cn([C@H]2C[C@H](N=[N+]=[N-])[C@@H](CO)O2)c(=O)[nH]c1=O [Zidovudine, 3′-deoxy-3′-azido-thymidine]",reduce ZIKV load

# System: ZIKA in 293 cells
# Test: ZIKA inhibition in 293 cells visualized by immune staining
# Format: cell-based, Zika virus
# Details: 20 μM
# Description: FIGS. 9A-9K. […] Drugs: mock (FIG. 9A), DMSO (FIG. 9B), PHA-690509 (FIG. 9C), formoterol (FIG. 9D), fluoxetine (FIG. 9E), genistein (FIG. 9F), U0126 (FIG. 9G), berberine (FIG. 9H), dibucaine (FIG. 9I), pirlindole (FIG. 9J), and suramin (FIG. 9K). Left panels: DAPI; right panels: ZIKV.
# Agents in order (top to bottom): mock, DMSO, PHA-690509, formoterol, fluoxetine, genistein, U0126, berberine, dibucaine, pirlindole, and suramin.
row,SMILES,ZIKA inhibition visualized by immune staining
1,CC(=O)Nc1ccc([C@H](C)C(=O)Nc2ncc(C(C)C)s2)cc1 [PHA-690509],ZIKA inhibition
2,N#CC(=C(/N)Sc1ccccc1N)/C(C#N)=C(\N)Sc1ccccc1N [U0126],ZIKA inhibition
3,COc1ccc2cc3[n+](cc2c1OC)CCc1cc2c(cc1-3)OCO2 [berberine],ZIKA inhibition
4,CCCCOc1cc(C(=O)NCCN(CC)CC)c2ccccc2n1 [dibucaine],ZIKA inhibition
5,"CNCCC(Oc1ccc(C(F)(F)F)cc1)c1ccccc1 (centres unmarked) [fluoxetine, N-methyl-3-phenyl-3-[4-(trifluoromethyl)phenoxy]propan-1-amine]",ZIKA inhibition
6,COc1ccc(CC(C)NCC(O)c2ccc(O)c(NC=O)c2)cc1 (centres unmarked) [formoterol],ZIKA inhibition
7,O=c1c(-c2ccc(O)cc2)coc2cc(O)cc(O)c12 [genistein],ZIKA inhibition
8,Cc1ccc2c(c1)c1c3n2CCNC3CCC1 (centres unmarked) [pirlindole],ZIKA inhibition
9,"Cc1ccc(C(=O)Nc2ccc(S(=O)(=O)O)c3cc(S(=O)(=O)O)cc(S(=O)(=O)O)c23)cc1NC(=O)c1cccc(NC(=O)Nc2cccc(C(=O)Nc3cc(C(=O)Nc4ccc(S(=O)(=O)O)c5cc(S(=O)(=O)O)cc(S(=O)(=O)O)c45)ccc3C)c2)c1 [suramin, 8,8′-{Carbonylbis[imino-3,1-phenylenecarbonylimino(4-methyl-3,1-phenylene)carbonylimino]}di(1,3,5-naphthalenetrisulfonic acid)]",ZIKA inhibition

# System: ZIKV in human microglial cell line
# Test: ZIKV replication in microglia treated with nucleoside metabolic inhibitors (RT-qPCR, immunohistochemistry)
# Format: cell-based, Zika virus
# Details: MOI of 1, 1 μM and 10 μM, 48 hpi
# Experimental: FIGS. 14A-14D. Nucleoside Metabolic Inhibitors Attenuate ZIKV Replication. (FIG. 14A) ZIKV replication assessed by RT-qPCR analysis 48 hours post-infection in mock, ZIKV only, ZIKV plus 1 μM floxuridine or ZIKV plus 10 μM floxuridine treated microglia. Data are presented as the mean±SEM of n=3. *p<0.05, **p<0.01 by t-test. (FIG. 14B) Immunohistochemistry of ZIKV gene expression in mock, ZIKV only, ZIKV plus 1 μM floxuridine (FUDX1) or ZIKV plus 10 μM floxuridine (FUDX10) treated microglia. Cells were stained with anti-flavivirus envelope protein (ZIKVE), and nuclei were visualized with Hoechst 33258. (FIG. 14C) ZIKV replication assessed by RT-qPCR analysis 48 hours post-infection in mock, ZIKV only, ZIKV plus fluorouracil or ZIKV plus 10 μM fluorouracil treated microglia. Data are presented as the mean±SEM of n=3. *p<0.05, **p<0.01 by t-test. […]
# Since metabolic processes are the most dysregulated pathways during ZIKV infection at the transcriptome level, we hypothesized that inhibition of these pathways could be exploited for therapeutic effects. […] The effect of the antimetabolites floxuridine (FIGS. 14A-14B) and flurouracil (FIGS. 14C-14D) on ZIKV replication was assessed 48 hpi at the RNA and protein level by RT-qPCR and immunohistochemistry, respectively.
# Drug Treatment. […] ZIKV RNA was quantified by using specific primers by SYBR Green PCR Master Mix (Bio-Rad) using a Roche LightCycler 480. […]
row,SMILES,ZIKV replication (RT-qPCR and immunohistochemistry)
1,O=c1[nH]c(=O)n([C@H]2C[C@H](O)[C@@H](CO)O2)cc1F [floxuridine],inhibited ZIKV more efficiently in a dose dependent manner than flurouracil; also recorded: dose-dependent inhibition of ZIKV replication; also recorded: abrogated ZIKV replication
2,O=c1[nH]cc(F)c(=O)[nH]1 [flurouracil],affected ZIKV
